Measured values from PubChem BioAssay (NCI).
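Cultured in 96-well plates, cells were exposed to test compound for 48 hours across five concentrations. TGI marks complete inhibition of growth.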

Legend:
Assay in all cases: NCI tumour cell line growth inhibition, 48 h
RXF 393 renal = system: RXF 393 renal
NCI-H226 lung = system: NCI-H226 lung
DMS 114 small cell lung = system: DMS 114 small cell lung
OVCAR-8 ovarian = system: OVCAR-8 ovarian
KM20L2 colon = system: KM20L2 colon
MALME-3M melanoma = system: MALME-3M melanoma
HT29 colon = system: HT29 colon
UACC-257 melanoma = system: UACC-257 melanoma
786-0 renal = system: 786-0 renal
HCT-116 colon = system: HCT-116 colon
K-562 leukemia = system: K-562 leukemia
SW-620 colon = system: SW-620 colon
HCT-15 colon = system: HCT-15 colon
OVCAR-5 ovarian = system: OVCAR-5 ovarian
SNB-78 CNS = system: SNB-78 CNS
OVCAR-3 ovarian = system: OVCAR-3 ovarian
SF-295 CNS = system: SF-295 CNS
ACHN renal = system: ACHN renal
NCI-H23 lung = system: NCI-H23 lung
MOLT-4 leukemia = system: MOLT-4 leukemia
LXFL 529 NSCLC = system: LXFL 529 NSCLC
SNB-75 CNS = system: SNB-75 CNS
U251 CNS = system: U251 CNS
TK-10 renal = system: TK-10 renal
SK-OV-3 ovarian = system: SK-OV-3 ovarian
IGROV1 ovarian = system: IGROV1 ovarian
SK-MEL-2 melanoma = system: SK-MEL-2 melanoma
EKVX NSCLC = system: EKVX NSCLC
A549 NSCLC = system: A549 NSCLC
HCC-2998 colon = system: HCC-2998 colon
RXF-631 renal = system: RXF-631 renal
SN12C renal = system: SN12C renal
KM12 colon = system: KM12 colon
COLO 205 colon = system: COLO 205 colon
UACC-62 melanoma = system: UACC-62 melanoma
UO-31 renal = system: UO-31 renal
NCI-H522 lung = system: NCI-H522 lung
RPMI-8226 leukemia = system: RPMI-8226 leukemia
M14 melanoma = system: M14 melanoma
XF 498 CNS = system: XF 498 CNS
SK-MEL-5 melanoma = system: SK-MEL-5 melanoma
HOP-18 NSCLC = system: HOP-18 NSCLC
NCI-H460 lung = system: NCI-H460 lung
SNB-19 CNS = system: SNB-19 CNS
CAKI-1 renal = system: CAKI-1 renal
DLD-1 colon = system: DLD-1 colon
M19-MEL melanoma = system: M19-MEL melanoma
SR leukemia = system: SR leukemia
SK-MEL-28 melanoma = system: SK-MEL-28 melanoma
OVCAR-4 ovarian = system: OVCAR-4 ovarian
CCRF-CEM leukemia = system: CCRF-CEM leukemia
LOX IMVI melanoma = system: LOX IMVI melanoma
HOP-92 NSCLC = system: HOP-92 NSCLC
HOP-62 NSCLC = system: HOP-62 NSCLC
DMS 273 small cell lung = system: DMS 273 small cell lung
SF-268 CNS = system: SF-268 CNS
HL-60(TB) leukemia = system: HL-60(TB) leukemia
A498 renal = system: A498 renal
SF-539 CNS = system: SF-539 CNS

OCC1OC2c3ccccc3COC2C1OCc1ccccc1 (stereo not given)
TGI (RXF 393 renal): > 100 µM
TGI (NCI-H226 lung): > 100 µM
TGI (DMS 114 small cell lung): > 100 µM
TGI (OVCAR-8 ovarian): > 100 µM
TGI (KM20L2 colon): > 100 µM
TGI (MALME-3M melanoma): > 100 µM
TGI (HT29 colon): > 100 µM
TGI (UACC-257 melanoma): > 100 µM
TGI (786-0 renal): > 100 µM
TGI (HCT-116 colon): > 100 µM
TGI (K-562 leukemia): > 100 µM
TGI (SW-620 colon): > 100 µM
TGI (HCT-15 colon): > 100 µM
TGI (OVCAR-5 ovarian): > 100 µM
TGI (SNB-78 CNS): > 100 µM
TGI (OVCAR-3 ovarian): > 100 µM
TGI (SF-295 CNS): > 100 µM
TGI (ACHN renal): > 100 µM
TGI (NCI-H23 lung): > 100 µM
TGI (MOLT-4 leukemia): > 100 µM
TGI (LXFL 529 NSCLC): > 100 µM
TGI (SNB-75 CNS): > 100 µM
TGI (U251 CNS): > 100 µM
TGI (TK-10 renal): > 100 µM
TGI (SK-OV-3 ovarian): > 100 µM
TGI (IGROV1 ovarian): > 100 µM
TGI (SK-MEL-2 melanoma): > 100 µM
TGI (EKVX NSCLC): > 100 µM
TGI (A549 NSCLC): > 100 µM
TGI (HCC-2998 colon): > 100 µM
TGI (RXF-631 renal): > 100 µM
TGI (SN12C renal): > 100 µM
TGI (KM12 colon): > 100 µM
TGI (COLO 205 colon): > 100 µM
TGI (UACC-62 melanoma): > 100 µM
TGI (UO-31 renal): > 100 µM
TGI (NCI-H522 lung): > 100 µM
TGI (RPMI-8226 leukemia): > 100 µM
TGI (M14 melanoma): > 100 µM
TGI (XF 498 CNS): > 100 µM
TGI (SK-MEL-5 melanoma): > 100 µM
TGI (HOP-18 NSCLC): > 100 µM
TGI (NCI-H460 lung): > 100 µM
TGI (SNB-19 CNS): > 100 µM
TGI (CAKI-1 renal): > 100 µM
TGI (DLD-1 colon): > 100 µM
TGI (M19-MEL melanoma): > 100 µM
TGI (SR leukemia): > 100 µM
TGI (SK-MEL-28 melanoma): > 100 µM
TGI (OVCAR-4 ovarian): > 100 µM

c1ccc2c(c1)SC(=C1Sc3ccccc3S1)S2
TGI (RXF 393 renal): > 100 µM
TGI (DMS 114 small cell lung): > 100 µM
TGI (OVCAR-8 ovarian): > 100 µM
TGI (KM20L2 colon): > 100 µM
TGI (MALME-3M melanoma): > 100 µM
TGI (HT29 colon): > 100 µM
TGI (CCRF-CEM leukemia): > 100 µM
TGI (786-0 renal): > 100 µM
TGI (LOX IMVI melanoma): > 100 µM
TGI (K-562 leukemia): > 100 µM
TGI (SW-620 colon): > 100 µM
TGI (HCT-15 colon): > 100 µM
TGI (SNB-78 CNS): > 100 µM
TGI (OVCAR-3 ovarian): > 100 µM
TGI (SF-295 CNS): > 100 µM
TGI (ACHN renal): > 100 µM
TGI (NCI-H23 lung): > 100 µM
TGI (MOLT-4 leukemia): > 100 µM
TGI (LXFL 529 NSCLC): > 100 µM
TGI (HOP-92 NSCLC): > 100 µM
TGI (SNB-75 CNS): 73.3 µM
TGI (U251 CNS): > 100 µM
TGI (TK-10 renal): > 100 µM
TGI (HOP-62 NSCLC): > 100 µM
TGI (SK-OV-3 ovarian): > 100 µM
TGI (IGROV1 ovarian): > 100 µM
TGI (EKVX NSCLC): > 100 µM
TGI (A549 NSCLC): > 100 µM
TGI (HCC-2998 colon): > 100 µM
TGI (RXF-631 renal): > 100 µM
TGI (SN12C renal): > 100 µM
TGI (COLO 205 colon): > 100 µM
TGI (UACC-62 melanoma): > 100 µM
TGI (UO-31 renal): > 100 µM
TGI (M14 melanoma): > 100 µM
TGI (XF 498 CNS): > 100 µM
TGI (HOP-18 NSCLC): > 100 µM
TGI (DMS 273 small cell lung): > 100 µM
TGI (NCI-H460 lung): > 100 µM
TGI (SNB-19 CNS): > 100 µM
TGI (CAKI-1 renal): > 100 µM
TGI (DLD-1 colon): > 100 µM
TGI (M19-MEL melanoma): > 100 µM
TGI (SK-MEL-28 melanoma): > 100 µM
TGI (OVCAR-4 ovarian): > 100 µM
TGI (SF-268 CNS): > 100 µM

COc1cccc2c1C(=O)c1c(O)c3c(c(O)c1C2=O)C[C@@](O)(C(C)=O)CC3S(=O)(=O)O (stereo not given in full)
TGI (RXF 393 renal): > 100 µM
TGI (NCI-H226 lung): > 100 µM
TGI (DMS 114 small cell lung): > 100 µM
TGI (OVCAR-8 ovarian): > 100 µM
TGI (KM20L2 colon): > 100 µM
TGI (HL-60(TB) leukemia): > 100 µM
TGI (MALME-3M melanoma): > 100 µM
TGI (HT29 colon): > 100 µM
TGI (UACC-257 melanoma): > 100 µM
TGI (CCRF-CEM leukemia): > 100 µM
TGI (786-0 renal): > 100 µM
TGI (LOX IMVI melanoma): > 100 µM
TGI (HCT-116 colon): > 100 µM
TGI (K-562 leukemia): > 100 µM
TGI (SW-620 colon): > 100 µM
TGI (HCT-15 colon): > 100 µM
TGI (OVCAR-5 ovarian): > 100 µM
TGI (SNB-78 CNS): > 100 µM
TGI (OVCAR-3 ovarian): > 100 µM
TGI (SF-295 CNS): > 100 µM
TGI (ACHN renal): > 100 µM
TGI (NCI-H23 lung): > 100 µM
TGI (MOLT-4 leukemia): > 100 µM
TGI (LXFL 529 NSCLC): > 100 µM
TGI (HOP-92 NSCLC): > 100 µM
TGI (SNB-75 CNS): > 93 µM
TGI (U251 CNS): > 100 µM
TGI (TK-10 renal): > 100 µM
TGI (HOP-62 NSCLC): > 100 µM
TGI (SK-OV-3 ovarian): > 100 µM
TGI (IGROV1 ovarian): > 100 µM
TGI (SK-MEL-2 melanoma): > 100 µM
TGI (EKVX NSCLC): > 100 µM
TGI (A549 NSCLC): > 100 µM
TGI (HCC-2998 colon): > 100 µM
TGI (RXF-631 renal): > 100 µM
TGI (SN12C renal): > 100 µM
TGI (KM12 colon): > 100 µM
TGI (COLO 205 colon): > 100 µM
TGI (UACC-62 melanoma): > 100 µM
TGI (UO-31 renal): > 100 µM
TGI (NCI-H522 lung): > 100 µM
TGI (RPMI-8226 leukemia): > 100 µM
TGI (M14 melanoma): > 100 µM
TGI (XF 498 CNS): > 100 µM
TGI (SK-MEL-5 melanoma): > 100 µM
TGI (HOP-18 NSCLC): > 100 µM
TGI (DMS 273 small cell lung): > 100 µM
TGI (NCI-H460 lung): > 100 µM
TGI (SNB-19 CNS): > 100 µM
TGI (CAKI-1 renal): > 100 µM
TGI (DLD-1 colon): > 100 µM
TGI (M19-MEL melanoma): > 100 µM
TGI (A498 renal): > 100 µM
TGI (SR leukemia): > 100 µM
TGI (SK-MEL-28 melanoma): > 100 µM
TGI (OVCAR-4 ovarian): > 100 µM
TGI (SF-268 CNS): > 100 µM
TGI (SF-539 CNS): > 100 µM
